From ChEMBL document CHEMBL3826875, “2,8-Disubstituted-1,6-Naphthyridines and 4,6-Disubstituted-Isoquinolines with Potent, Selective Affinity for CDK8/19” (ACS Med Chem Lett, 2016) come the findings set out here.

The structures appear in SMILES notation.

Test system in the first data set: not listed separately
Put plainly: in vitro. The conditions noted are these: human, Caco-2.
As usually defined, the Papp A→B is the apparent permeability from the apical to the basolateral side of a cell layer. High values mean ready permeation, low ones poor permeation. The compound `Cn1cc(-c2ccc(-c3cnc(N)c4ccc(N5CCOC5=O)cc34)cc2)cn1` yielded a Papp A→B at 2 h, 1 µM of 20.6 ×10⁻⁶ cm/s.
In turn, `Cn1cc(-c2ccc(-c3cnc(N)c4ccc(C(=O)NC5CC5)cc34)cc2)cn1` had a Papp A→B at 2 h, 1 µM of 32.5 ×10⁻⁶ cm/s. Compared with the last compound, the Papp A→B at 2 h, 1 µM is about 1.6-fold higher.
Consider `Cn1cc(-c2ccc(-c3cnc(N)c4ccc(C(=O)N5CC(C)(F)C5)nc34)cc2)cn1`, for which the Papp A→B at 2 h, 1 µM is 27.6 ×10⁻⁶ cm/s. This Papp A→B at 2 h, 1 µM and that of the compound before are within 1.5-fold of each other.
Still for that read-out and setting: the same measure for `COC1(C)CN(C(=O)c2ccc3c(N)ncc(-c4ccc(-c5cnn(C)c5)cc4)c3n2)C1`: 40.1 ×10⁻⁶ cm/s; for `Cn1cc(-c2ccc(-c3cnc(N)c4ccc(C(=O)N5CCC5)nc34)cc2)cn1`: 42.6 ×10⁻⁶ cm/s; for `Cn1cc(-c2ccc(-c3cnc(N)c4ccc(C(=O)N5CC(F)(F)C5)nc34)cc2)cn1`: 23.9 ×10⁻⁶ cm/s.
Still for that read-out and setting: the same measure for `Cn1cc(-c2ccc(-c3cnc(N)c4ccc(C(=O)N5CCC5)cc34)cc2)cn1`: 27.2 ×10⁻⁶ cm/s; for `Cn1cc(-c2ccc(-c3cnc(N)c4ccc(C(=O)N5CC(C)(F)C5)cc34)cc2)cn1`: 25.8 ×10⁻⁶ cm/s.
The same measure, in the same setting: the result for `Cn1cc(-c2ccc(-c3cnc(N)c4ccc(C(=O)N5CC(F)(F)C5)cc34)cc2)cn1` reads 39.7 ×10⁻⁶ cm/s; that for `Cn1cc(-c2ccc(-c3cnc(N)c4ccc(C(=O)N5CCNCC5)nc34)cc2)cn1`, 0.96 ×10⁻⁶ cm/s.
For the compound `COC1(C)CN(C(=O)c2ccc3c(N)ncc(-c4ccc(-c5cnn(C)c5)cc4)c3c2)C1`, the Papp A→B at 2 h, 1 µM was 25.2 ×10⁻⁶ cm/s.
The same measure, in the same setting: the same measure for `COC1CN(C(=O)c2ccc3c(N)ncc(-c4ccc(-c5cnn(C)c5)cc4)c3n2)C1`: 28.6 ×10⁻⁶ cm/s.
On the same count and under the same terms, the result for `Cn1cc(-c2ccc(-c3cnc(N)c4ccc(C(=O)N5CCOCC5)nc34)cc2)cn1` reads 34 ×10⁻⁶ cm/s.

The species named for the next data set is Mus musculus.
Assay: not given
The settings on record: SW-620, 5 mg/kg.
Turning to `COC1CN(C(=O)c2ccc3c(N)ncc(-c4ccc(-c5cnn(C)c5)cc4)c3n2)C1`, the inhibition entry was “tde”.
